Source: patent US12390467B2, “Necroptosis inducers or autophagy inhibitors or a combination thereof” (The University of Toledo, priority 2018, dated 2025)
Where two headings read alike, the source gives them in different places.

Key:
Assay type in all cases: cell-based
[1] = tested on: lung (H460), ovarian (OV2008), prostate (DU145), and colon (HCT-116, LOVO, S1); test: MTT cytotoxicity screening, other cancer types; conditions: H460, OV2008, DU145, HCT-116, LOVO, less potently than in TNBC
Experimental: (§1) The following cancer and non-cancer cell lines were used in the initial cytotoxicity screening of the TPH104 compounds: triple negative breast cancer (TNBC): MDA-MB468, MDA-MB 231, and BT-20; non-TNBC: MCF-7 and ZR-75-1; ovarian: Ov2008; prostate: DU145; colon: HCT-116, S1, and LOVO; lung: H460; normal kidney: HEK-293; normal breast: HMEC; and normal colon: CRL-1459. All cells were cultured in Dulbecco's modified Eagle medium (DMEM), supplemented with 10% fetal bovine serum (FBS), and 1% penicillin/streptomycin (P/S). Cells were allowed to grow as adherent monolayers in T25 flasks in a humidified incubator with 5% CO2 at 37° C. for a period of 24 h, unless otherwise specified for certain experiments.
The MTT assay was used to determine the cytotoxicity of all of the compounds. […] Subsequently, the plate was shaken for 2 minutes and the absorbance was measured at a wavelength of 570 nm using a SpectraMax iD3 Multi-Mode Microplate Reader (Molecular Devices, Sunnyvale, CA). The IC50 values of each compound were calculated and used to determine the selectivity ratio (IC50 in normal cells/IC50 in cancer cells) of each compound as previously described. […]
Table 3 (FIG. 30)-Cytotoxicity screening of TPH104 compounds against Colon (HCT-116, LOVO and S1), Prostate (DU145), Ovarian (Ov 2008), and Lung (H460) cancer cell lines. Cell survival was determined using MTT assay as described. […]

[2] = target: T1, ABCG2 transporter (S1M180 cells) (Homo sapiens, UniProt Q9UNQ0, R482G); test: Intracellular accumulation of rhodamine 123; conditions: 0.05-1 μM
T1 construct: intracellular accumulation of rhodamine 123 in ABCG2 overexpressing S1M180 cells; endogenous in cells; host or cells: S1M180 colon cancer cells
T1 sequence (Q9UNQ0 whole entry R482G, one chain of several): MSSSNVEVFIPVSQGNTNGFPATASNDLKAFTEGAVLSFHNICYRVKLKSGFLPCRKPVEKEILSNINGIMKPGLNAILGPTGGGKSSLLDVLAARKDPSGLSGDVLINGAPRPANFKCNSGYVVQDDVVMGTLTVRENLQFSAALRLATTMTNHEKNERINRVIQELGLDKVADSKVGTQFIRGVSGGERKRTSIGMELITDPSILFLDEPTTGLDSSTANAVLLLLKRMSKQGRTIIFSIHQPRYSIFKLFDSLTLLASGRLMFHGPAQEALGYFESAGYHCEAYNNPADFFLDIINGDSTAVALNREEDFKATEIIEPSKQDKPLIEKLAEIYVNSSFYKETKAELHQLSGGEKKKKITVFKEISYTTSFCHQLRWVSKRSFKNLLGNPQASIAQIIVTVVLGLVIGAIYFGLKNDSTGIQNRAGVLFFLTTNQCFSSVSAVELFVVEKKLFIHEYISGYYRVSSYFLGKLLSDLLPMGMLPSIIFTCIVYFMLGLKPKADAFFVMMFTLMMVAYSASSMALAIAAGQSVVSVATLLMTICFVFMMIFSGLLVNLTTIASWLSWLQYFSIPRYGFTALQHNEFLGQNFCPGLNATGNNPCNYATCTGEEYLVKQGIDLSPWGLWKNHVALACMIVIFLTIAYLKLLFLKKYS
Experimental: FIG. 26: TPH104 reverses multidrug resistance by blocking the function of ABCG2 transporter. The effect of TPH104 and nilotinib on the intracellular accumulation of rhodamine 123 in ABCG2 overexpressing S1M180 cells. The top image is a graph showing the concentration-dependent increase in the accumulation of rhodamine 123 in S1M180 cells incubated with TPH104. Red filled=control; sky blue filled=0.05 μM; brown filled=0.1 μM; dark blue filled=0.3 μM; lime green filled=1 μM of TPH104, respectively, and olive green=nilotinib, 5 μM. The bottom image is a bar graph representing the relative rhodamine 123 accumulation levels. The data shown as means±SEM of three independent experiments. *p<0.05; ***p<0.001 compared to the control.

BT-20 or MDA-MB468 cells = test: Cellular reactive oxygen species (ROS) detection assay (H2DCFDA); conditions: 1, 2, and 5 μM, 12 h
Experimental: To assess the effect of TPH104 on the generation of ROS, a cell permeant, fluorogenic dye, 2′,7′-dichlorofluorescin diacetate, H2DCFDA, was used. A 5 mM stock solution was prepared using DMSO and PBS was used to prepare the 3 μM working solution of H2DCFDA. The TNBC cells were seeded in a 6-well plate as described in the cell cycle assay. After overnight incubation, cells were incubated with different TPH104 (1, 2, 5 μM) or vehicle for 12 h or with 2 μM of paclitaxel (positive control) for 2 h. The H2DCFDA dye (3 μM) was added to each well and the plate was incubated for an additional 30 minutes. Subsequently, cells were washed 3 times in PBS to remove excess H2DCFDA dye. Thereafter, cells from each well were captured from randomly selected fields using a fluorescent microscope (EVOS-FLC cell imaging system, Thermofisher scientific) at 40× to determine the 2′,7′-dichlorofluorescein (DCF) fluorescence intensity, which is positively correlated with the generation of ROS.

BT-20 cells = test: Acridine orange assay; conditions: TPH104, 12 h, vs vehicle
Experimental: The cell-permeant, nucleic acid binding dye, acridine orange (AO) was used to assess the effect of TPH104 on the activation of lysosomes. A 10 μg/ml stock solution was prepared using PBS. The TNBC cells were seeded in a 6-well plate as described in the cell cycle assay. After overnight incubation, cells were incubated with TPH104 (1, 2, 5 μM), vehicle or 20 uM of chloroquine (CQ, […]) for 12 h. The media was removed via suction and 1 ml of AO, diluted in 1:1000 in PBS, was added to each well and the plate was incubated for an additional 30 minutes. Cells were washed three times in PBS to remove excess dye. The cells from each well were captured from randomly selected fields using a fluorescent microscope (EVOS-FLC cell imaging system, Thermofisher scientific) at 40× to determine the AO fluorescence intensity which is positively correlated to lysosomal activation.

[3] = tested on: MCF-7 (non-TNBC cell line); test: MTT cell viability assay, MCF-7; conditions: read-out: IC50 ± SD, MCF-7
Experimental: as §1
The MTT assay was used to determine the cytotoxicity of all of the compounds. Briefly, in a 96-well flat-bottom cell culture plate, the cells were seeded at a density between 3-5×10^3 cells/well (180 μl in each well) and incubated for 24 h (a hemocytometer was used for cell counting). The next day, the cells were incubated with different concentrations of the nine compounds (0, 0.1, 0.3, 1, 3, 10, 30, and 100 μM) for 72 h. After 72 h, 20 μl of 5 mg/ml of 3-(4,5-dimethylthiazol-2-yl)-2,5-diphenyltetrazolium bromide (MTT) was added to the plate and incubated with the cells for 3 h at 37° C. In this experiment, the living cells will reduce the soluble MTT dye to non-soluble purple formazan crystals. Following incubation, the media containing MTT removed via suction and 100 μL of 100% dimethyl sulfoxide (DMSO) was added to dissolve the formazan crystals. Subsequently, the plate was shaken for 2 minutes and the absorbance was measured at a wavelength of 570 nm using a SpectraMax iD3 Multi-Mode Microplate Reader (Molecular Devices, Sunnyvale, CA). The IC50 values of each compound were calculated and used to determine the selectivity ratio (IC50 in normal cells/IC50 in cancer cells) of each compound as previously described. Based on the results obtained from these experiments, the compound TPH104, which had the lowest IC50 value, was selected for further experiments.

COc1ccc(O)c(/C=N/Nc2ncnc3scc(-c4ccc(C)cc4)c23)c1 [TPH104]
proliferation of other types of cancer [1]: significantly inhibited | intracellular accumulation of rhodamine 123 [2]: increased | DCF fluorescence levels (ROS) (BT-20 or MDA-MB468 cells): did not significantly alter | fluorescence intensity of the acridine orange (AO) dye (BT-20 cells): did not show a significant increase | IC50 ([3]; 72 h): 3.84 ± 1.36 µM | IC50 ([3]; Homo sapiens, MCF7, 72 h): 3.8 µM
